For this assay, the target named is T1, human 5-HT6 receptor (Homo sapiens, UniProt P50406).
T1 construct: host or cells: CHO-K1 cells, stably transfected; membranes prepared in house
As to the kind of experiment: Human 5-HT6 Receptor Binding Assay ([3H]LSD displacement, scintillation beads). Particulars: membranes of CHO-K1 cells with recombinant human 5-HT6, 4 nM [3H]LSD; Table 1, class symbols; read-out: h5-HT6 (Ki).

Structures are written as SMILES. A value given as a limit tells only on which side of the number the result lay.

T1 sequence (P50406 whole entry): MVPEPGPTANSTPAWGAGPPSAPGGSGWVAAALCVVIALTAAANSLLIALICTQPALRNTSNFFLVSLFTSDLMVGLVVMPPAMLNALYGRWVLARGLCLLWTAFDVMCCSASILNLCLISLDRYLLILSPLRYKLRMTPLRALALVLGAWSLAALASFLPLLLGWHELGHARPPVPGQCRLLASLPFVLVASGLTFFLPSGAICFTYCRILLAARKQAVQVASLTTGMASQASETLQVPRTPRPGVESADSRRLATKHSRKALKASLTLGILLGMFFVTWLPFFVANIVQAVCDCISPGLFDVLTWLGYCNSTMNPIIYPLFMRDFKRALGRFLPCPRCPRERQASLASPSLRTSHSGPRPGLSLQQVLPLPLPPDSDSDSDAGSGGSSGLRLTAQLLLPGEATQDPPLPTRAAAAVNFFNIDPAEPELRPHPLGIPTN

`O=S(=O)(Oc1ccc2c(c1)C1CCNCC1O2)c1cccc(Cl)c1Cl` (centres unmarked) [Example 740]: the Ki was below 500 nM.

As for `Cc1cccc(S(=O)(=O)Oc2ccc3c(c2)OC2CNCCC32)c1` (centres unmarked) [Example 641], the Ki is below 500 nM.

On to `CC1(C)CNC2(CCOC2)c2oc3cc(S(=O)(=O)c4ccccc4)ccc3c21` (centres unmarked) [Example 295], for which the Ki was below 500 nM.

`O=S(=O)(c1cccc(Cl)c1)c1ccc2c3c(oc2c1)C1(CCOC1)NCC3` (centres unmarked) [Example 303]: the Ki is below 500 nM.

In the case of `O=S(=O)(c1cncc(Cl)c1)c1ccc2c3c(oc2c1)CNCC3` [Example 437], the Ki is below 500 nM.

Consider `O=S(=O)(c1cccc(OC(F)(F)F)c1)c1ccc2c3c(oc2c1)C1(CCOCC1)NCC3` [Example 300, 7-{[3-(trifluoromethoxy)phenyl]sulfo-nyl}-2′,3,3′,4,5′,6′-hexahydro-2H-spiro[1-benzofuro[2,3-c]pyridine-1,4′-pyran]], for which the Ki is below 500 nM.

With `O=S(=O)(c1ccc2c3c(oc2c1)CNCC3)c1cc(Cl)ccc1Cl` [Example 215, 7-[(2,5-dichlorophenyl)sulfonyl]-1,2,3,4-tetrahydro[1]benzofuro[2,3-c]pyridine], the Ki was below 500 nM.

Regarding `Cc1c(Cl)cccc1S(=O)(=O)Oc1ccc2c(c1)C1(C)CCNCC1O2` (centres unmarked) [Example 767], the Ki was above 1000 nM.

On to `[O-][S+](c1cncc(F)c1)c1ccc2c(c1)OC1CNCCC21` (centres unmarked) [Example 396], for which the inhibitory constant (Ki) was above 1000 nM.

For the molecule `O=S(=O)(Nc1ccc2c(c1)C1CCNCC1O2)c1cc2ccccc2o1` (centres unmarked) [Example 833], the Ki is 500 to 1000 nM.

With `CC12CCN(Cc3ccccc3)CC1Oc1ccc(OS(=O)(=O)Cc3ccccc3)cc12` (centres unmarked) [Example 808], the Ki was above 1000 nM.

For `O=S(=O)(Oc1ccc2c(c1)OC1CN(C3CCCCC3)CCC21)c1ccc(Cl)cc1` (centres unmarked) [Example 802], the Ki lay within 500 to 1000 nM.

Consider `O=S(=O)(c1cccc(F)c1)c1ccc2c3c(oc2c1)C(C(F)(F)F)NCC3` (centres unmarked) [Example 510], for which the inhibitory constant (Ki) was below 500 nM.

`COc1ccc(S(=O)(=O)c2ccc3c4c(oc3c2)CNCC4)cc1` [Example 198]: the Ki is below 500 nM.

For the molecule `CC12CCN(C3CCCC3)CC1Oc1ccc(OS(=O)(=O)Cc3ccccc3)cc12` (centres unmarked) [Example 806], the Ki is above 1000 nM.

Regarding `Cc1cccc(S(=O)(=O)c2ccc3oc4c(c3c2)CCNC4)n1` [Example 350], the inhibitory constant (Ki) is below 500 nM.

As to `COc1cccc(S(=O)(=O)Oc2ccc3c(c2)OC2CNCCC32)c1` (centres unmarked) [Example 651], the Ki is below 500 nM.

Consider `CC(C)Oc1cccc(S(=O)(=O)c2ccc3c4c(oc3c2)C2(CCC2)NCC4)c1` [Example 26, 7-{[3-(propan-2-yloxy)phenyl]sulfonyl}-3,4-dihydro-2H-spiro[1-benzofuro[2,3-c]pyridine-1,1′-cyclobutane]], for which the Ki was below 500 nM.

On to `CC(=O)N1CCC2c3cc(NS(=O)(=O)c4cc(C)ccc4C)ccc3OC2C1` (centres unmarked) [Example 815], for which the Ki was above 1000 nM.

As for `CC1(C)CNC(C2CCOCC2)c2oc3cc(S(=O)(=O)c4cccc(F)c4)ccc3c21` (racemic) [Example 45, 7-[(3-fluorophenyl)sulfonyl]-4,4-dimethyl-1-(tetrahydro-2H-pyran-4-yl)-1,2,3,4-tetrahydro[1]benzofuro[2,3-c]pyridine], the Ki was below 500 nM.

As for `O=S(=O)(c1ccc2c(c1)OC1CNCCC21)c1cccc(Cl)c1Cl` (centres unmarked) [Example 156], the Ki was below 500 nM.

Take `O=S(=O)(c1cccc(F)c1)c1ccc2c3c(oc2c1)CNCC3` [Example 341]: the Ki is below 500 nM.

Regarding `O=S(=O)(c1ccc2c(c1)C1CCNCC1O2)c1cccc2ccccc12` (centres unmarked) [Example 170], the Ki was below 500 nM.

Regarding `Cc1ccc(F)cc1S(=O)(=O)c1ccc2c(c1)OC1CNCCC21` (centres unmarked) [Example 130], the Ki is below 500 nM.

Take `CC(C)Oc1cccc(S(=O)(=O)c2ccc3c4c(oc3c2)C(C)(C(F)F)NCC4)c1` (single isomer, unassigned) [Example 34, 1-(difluoromethyl)-1-methyl-7-{[3-(propan-2-yloxy)phenyl]sulfonyl}-1,2,3,4-tetrahydro[1]benzofuro[2,3-c]pyridine]: the Ki is below 500 nM.

Regarding `O=S(=O)(Oc1ccc2c(c1)C1CCNCC1O2)c1ccc(OC(F)(F)F)cc1` (centres unmarked) [Example 744], the Ki is above 1000 nM.

Take `O=S(=O)(c1cccnc1)c1ccc2c(c1)OC1CNCCC21` (centres unmarked) [Example 393]: the Ki was above 1000 nM.

Take `COc1cc(S(=O)(=O)c2ccc3c4c(oc3c2)C2(CCOC2)NCC4(C)C)c[n+]([O-])c1` (centres unmarked) [Example 453]: the Ki was above 1000 nM.

`CC(C)Oc1cccc(S(=O)(=O)c2ccc3c(c2)OC2CNCCC32)c1` (centres unmarked) [Example 159]: the Ki was below 500 nM.

`CC1OCCC12NCCc1c2oc2cc(S(=O)(=O)c3cccc(F)c3)ccc12` (single isomer, unassigned) [Example 59, 7-[(3-Fluorophenyl)sulfonyl]-2′-methyl-3,4,4′,5′-tetrahydro-2H-spiro[1-benzofuro[2,3-c]pyridine-1,3′-furan]]: the Ki is below 500 nM.

Regarding `COc1cccc(S(=O)(=O)Nc2ccc3c(c2)C2CCNCC2O3)c1` (centres unmarked) [Example 822], the Ki is above 1000 nM.

Take `Cc1cc(S(=O)(=O)c2ccc3oc4c(c3c2)CCNC4)ccc1F` [Example 268]: the Ki is below 500 nM.

For the molecule `CC1OCCC12NCCc1c2oc2cc(S(=O)(=O)c3cccc(F)c3)ccc12` (single isomer, unassigned) [Example 60, 7-[(3-Fluorophenyl)sulfonyl]-2′-methyl-3,4,4′,5′-tetrahydro-2H-spiro[1-benzofuro[2,3-c]pyridine-1,3′-furan]], the Ki is below 500 nM.

Take `O=S(=O)(Nc1ccc2c(c1)C1CCNCC1O2)c1cccc(Cl)c1` (centres unmarked) [Example 826]: the Ki is below 500 nM.

Take `O=S(=O)(c1cccc(F)c1)c1ccc2c3c(oc2c1)C1(CCC1)NCC3` [Example 25, 7-[(3-fluorophenyl)sulfonyl]-3,4-dihydro-2H-spiro[1-benzofuro[2,3-c]pyridine-1,1′-cyclobutane]]: the Ki is below 500 nM.

As to `O=S(=O)(Oc1ccc2c(c1)OC1CNCCC21)c1csc(C(F)(F)F)c1-c1ccccc1` (centres unmarked) [Example 686], the Ki was below 500 nM.

On to `CC(C)S(=O)(=O)c1ccc2c3c(oc2c1)CNCC3` [Example 234], for which the Ki is above 1000 nM.

As for `O=S(=O)(Oc1ccc2c(c1)OC1CNCCC21)c1cccc(Cl)c1` (centres unmarked) [Example 653], the Ki was below 500 nM.

On to `Cc1c(S(=O)(=O)Nc2ccc3c(c2)C2CCNCC2O3)sc2ccc(Cl)cc12` (centres unmarked) [Example 830], for which the Ki was below 500 nM.

Consider `O=S(=O)(c1cccc(Cl)c1)c1ccc2oc3c(c2c1)CCNC3` [Example 243], for which the Ki was below 500 nM.

For the molecule `O=S(=O)(c1ccc2c(c1)OC1CNCCC21)c1cccc(Cl)c1F` (centres unmarked) [Example 409], the Ki was below 500 nM.

Regarding `Cc1ccc(S(=O)(=O)Oc2ccc3c(c2)OC2CNCCC32)cc1F` (centres unmarked) [Example 652], the Ki fell in the range of 500 to 1000 nM.

Regarding `O=S(=O)(Oc1ccc2c(c1)OC1CNCCC21)c1ccc(-c2ccon2)s1` (centres unmarked) [Example 680], the Ki was below 500 nM.

For the molecule `O=S(=O)(c1ccc2c3c(oc2c1)CNCC3)c1cccnc1Cl` [Example 436], the Ki was below 500 nM.

As to `[O-][S+](c1ccc2c3c(oc2c1)CNCC3)c1cc(F)ccc1F` (centres unmarked) [Example 222], the Ki is below 500 nM.

Regarding `O=S(=O)(Cc1ccccc1Cl)Oc1ccc2c(c1)C1CCNCC1O2` (centres unmarked) [Example 754], the Ki is above 1000 nM.

Consider `O=S(=O)(c1ccc2c3c(oc2c1)CNCC3)c1ccccc1Cl` [Example 230], for which the Ki is below 500 nM.

Take `O=S(=O)(Oc1ccc2c(c1)OC1CNCCC21)c1cccc(C(F)(F)F)c1` (centres unmarked) [Example 675]: the Ki was below 500 nM.

As to `[O-][S+](c1ccc2oc3c(c2c1)CCNC3)c1cccnc1F` (centres unmarked) [Example 444], the Ki was above 1000 nM.

Regarding `O=S(=O)(c1cccc(F)c1)c1ccc2c3c(oc2c1)C(CCBr)NCC3` (centres unmarked) [Example 497], the Ki is below 500 nM.

For the molecule `O=S(=O)(c1ccc2c(c1)OC1CNCCC21)c1ccccn1` (centres unmarked) [Example 331], the Ki lay in the range of 500 to 1000 nM.

With `O=S(=O)(NC1CCCCC1)c1ccc2c(c1)C1CCNCC1O2` (centres unmarked) [Example 849, N-cyclohexy1-1,2,3,4,4a,9a-hexahydro[1]benzofuro[2,3-c]pyridine-6-sulfonamide], the Ki was above 1000 nM.

As for `CC1(C)NCCc2c1oc1cc(S(=O)(=O)c3cccc4c3OCCO4)ccc21` [Example 466], the Ki is below 500 nM.

As to `O=S(=O)(c1ccc2oc3c(c2c1)CCNC3)c1cccc(Cl)c1Cl` [Example 260, 6-[(2,3-dichlorophenyl)sulfonyl]-1,2,3,4-tetrahydro[1]benzofuro[2,3-c]pyridine], the Ki is below 500 nM.

With `O=S(=O)(Oc1ccc2c(c1)C1CCNCC1O2)c1cccc2cccnc12` (centres unmarked) [Example 722], the Ki fell in the range of 500 to 1000 nM.

As for `CN(Cc1ccccc1)S(=O)(=O)c1ccc2c(c1)C1CCNCC1O2` (centres unmarked) [Example 858], the Ki was above 1000 nM.

In the case of `O=S(=O)(CCc1ccccc1)Oc1ccc2c(c1)OC1CNCCC21` (centres unmarked) [Example 691], the Ki is above 1000 nM.

In the case of `COc1ccc(OC)c(S(=O)(=O)Oc2ccc3c(c2)C2CCNCC2O3)c1` (centres unmarked) [Example 731], the Ki was below 500 nM.

Take `O=S(=O)(c1cccc(F)c1)c1ccc2c3c(oc2c1)C1(CCOC1)NCC3` (racemic) [Example 30, 7-[(3-fluorophenyl)sulfonyl]-3,4,4′,5′-tetrahydro-2H-spiro[1-benzofuro[2,3-c]pyridine-1,3′-furan]]: the Ki was below 500 nM.

For the molecule `O=S(=O)(Oc1ccc2c(c1)C1CCNCC1O2)c1ccc2ccccc2c1` (centres unmarked) [Example 721], the Ki was below 500 nM.

On to `Cc1c(S(=O)(=O)Oc2ccc3c(c2)C2CCNCC2O3)sc2ccc(Cl)cc12` (centres unmarked) [Example 748], for which the inhibition constant (Ki) is below 500 nM.

`CC12CCNCC1Oc1ccc(OS(=O)(=O)c3ccc4ccccc4c3)cc12` (centres unmarked) [Example 769]: the inhibitory constant (Ki) is below 500 nM.

On to `CC(C)S(=O)(=O)c1ccc2oc3c(c2c1)CCNC3` [Example 281], for which the Ki was above 1000 nM.

On to `Cc1c(S(=O)(=O)c2ccc3c4c(oc3c2)C(C)(C)NCC4)ccc[n+]1[O-]` [Example 374], for which the Ki was above 1000 nM.

For the molecule `CC12CCNCC1Oc1ccc(OS(=O)(=O)c3csc4ccccc34)cc12` (centres unmarked) [Example 772], the Ki is below 500 nM.

(Values after patent publication US8765779B2, “Tricyclic derivatives and their pharmaceutical use and compositions” (Cephalon, Inc., priority 2009, dated 2014).)
